Reference: patent US20190055280A1, “TRANSITION METAL-BASED SELECTIVE FUNCTIONALIZATION OF CHALCOGENS IN BIOMOLECULES” (Massachusetts Institute of Technoloy, priority 2014, published 2019)
Where two headings read alike, the source gives them in different places. Peptide text beside a SMILES is read from it. * marks the point of attachment. Succinimide(1-Et,3-yl) = CCN1C(=O)CC(*)C1=O; Bn = c1ccc(C*)cc1; X1 = Cc1ccc(*)cc1; Cam = NC(=O)C*

Assay: Stability evaluation of peptide P1 cysteine conjugates in the presence of base, acid or an external thiol nucleophile (LC-MS)
Format: physicochemical
Settings: for stability toward acids (in words): acidic conditions; for stability toward bases (in words): basic conditions; for stability toward external thiol nucleophiles (in words): exogenous thiol
Experimental: All reported yields were determined by integrating TIC spectra. First, the peak areas for all relevant peptide-containing species on the chromatogram were integrated using Agilent MassHunter software package. Since no peptide-based side products were generated in the experiments, the yields shown in Table 2 were determined as follows: % yield=Spr/Stotal where Spr is the peak area of the product and Stotal is the peak area of combined peptide-containing species (product and starting material). The yield of the stapled peptide (Example 19) was calculated as follows: % yield=k·Spr/Sst where Spr is the peak area of the reaction product, Sst is the peak area of a known amount of purified product, and k equals to the ratio of the known amount of standard divided by the initial amount of starting material. For peptide stability experiments the conversion was calculated as following: % remaining peptide=St/S0 where St is the peak area of the corresponding cysteine conjugate at time t, and S0 is the peak area of the cysteine conjugate at time 0.
Peptide P1 conjugates were pre-dissolved in water in plastic Eppendorfs to afford the 1.11 mM stock solutions used in the stability evaluation experiments. For each experiment, the corresponding cysteine conjugate (1.11 mM; 18 μL) and stability test reagent (2 μL, 50 mM in H2O or 50 mM in 1M Tris, pH 7.4) were combined in a plastic Eppendorf and left at rt for 2 days, followed by 4 days at 37° C. After this time, individual reactions were quenched with a solution of 50% A:50% B (v/v, 200 μL) and the resulting samples were analyzed by LC-MS.
Stability test reagent: K2CO3 (2 μL, 50 mM in H2O); Final conditions before quenching: 1 mM peptide, 5 mM K2CO3; 2 d at rt, then 4 d at 37° C.
Stability test reagent: HCl (2 μL, 1 M in H2O); Final conditions before quenching: 1 mM peptide, 0.1 M HCl; 2 d at rt, then 4 d at 37° C.
Stability test reagent: Glutathione (2 μL, 50 mM in 1 M Tris; pH 7.4); Final conditions before quenching: 1 mM peptide, 5 mM GSH, 0.1M Tris, pH 7.4; 2 d at rt, then 4 d at 37° C.

[1] = 5 mM aqueous K2CO3, 1 mM peptide, 5 mM K2CO3, 2 d at rt, then 4 d at 37° C., read-out: % remaining peptide, base
[2] = 0.1 M Tris buffer with 5 mM glutathione, 1 mM peptide, 5 mM GSH, 0.1M Tris, pH 7.4, 2 d at rt, then 4 d at 37° C., read-out: % remaining peptide, GSH
[3] = 0.1 M aqueous HCl, 1 mM peptide, 0.1 M HCl, 2 d at rt, then 4 d at 37° C., read-out: % remaining peptide, acid

A remaining at 144 h, 1 mM [1] of 84%, a remaining at 144 h, 1 mM [2] of 88% and a remaining at 144 h, 1 mM [3] of 85% were found for `CC(C)C[C@H](NC(=O)CNC(=O)[C@H](C)NC(=O)[C@H](CSCc1ccccc1)NC(=O)CNC(=O)[C@H](CC(C)C)NC(=O)[C@H](Cc1ccc(O)cc1)NC(=O)[C@H](Cc1ccccc1)NC(=O)[C@H](CC(N)=O)NC(=O)[C@H](CO)NC(=O)[C@@H](N)CCCNC(=N)N)C(=O)N[C@@H](C)C(=O)N[C@@H](Cc1c[nH]cn1)C(=O)N[C@@H](CC(=O)O)C(=O)N[C@@H](CCCCN)C(=O)N[C@@H](C)C(=O)N[C@H](C(N)=O)[C@@H](C)O` (H-RSNFYLGC(Bn)AGLAHDKAT-NH2) in this work.

A remaining at 144 h, 1 mM [1] of 66%, a remaining at 144 h, 1 mM [2] of 85% and a remaining at 144 h, 1 mM [3] of 63% were found for `CC(C)C[C@H](NC(=O)CNC(=O)[C@H](C)NC(=O)[C@H](CSCC(N)=O)NC(=O)CNC(=O)[C@H](CC(C)C)NC(=O)[C@H](Cc1ccc(O)cc1)NC(=O)[C@H](Cc1ccccc1)NC(=O)[C@H](CC(N)=O)NC(=O)[C@H](CO)NC(=O)[C@@H](N)CCCNC(=N)N)C(=O)N[C@@H](C)C(=O)N[C@@H](Cc1c[nH]cn1)C(=O)N[C@@H](CC(=O)O)C(=O)N[C@@H](CCCCN)C(=O)N[C@@H](C)C(=O)N[C@H](C(N)=O)[C@@H](C)O` (H-RSNFYLGC(Cam)AGLAHDKAT-NH2) in this work. For the same compound, the “stability toward acids (in words)” value was “unstable” and the “stability toward bases (in words)” value was “unstable”.

A remaining at 144 h, 1 mM [1] of 0%, a remaining at 144 h, 1 mM [2] of 37% and a remaining at 144 h, 1 mM [3] of 84% were found for `CCN1C(=O)CC(SC[C@H](NC(=O)CNC(=O)[C@H](CC(C)C)NC(=O)[C@H](Cc2ccc(O)cc2)NC(=O)[C@H](Cc2ccccc2)NC(=O)[C@H](CC(N)=O)NC(=O)[C@H](CO)NC(=O)[C@@H](N)CCCNC(=N)N)C(=O)N[C@@H](C)C(=O)NCC(=O)N[C@@H](CC(C)C)C(=O)N[C@@H](C)C(=O)N[C@@H](Cc2c[nH]cn2)C(=O)N[C@@H](CC(=O)O)C(=O)N[C@@H](CCCCN)C(=O)N[C@@H](C)C(=O)N[C@H](C(N)=O)[C@@H](C)O)C1=O` (stereo partly shown) (H-RSNFYLGC(Succinimide(1-Et,3-yl))AGLAHDKAT-NH2) in this work. For the same compound, the “stability toward bases (in words)” value was “decomposed” and the “stability toward external thiol nucleophiles (in words)” value was “decomposed”.

In the case of `Cc1ccc(SC[C@H](NC(=O)CNC(=O)[C@H](CC(C)C)NC(=O)[C@H](Cc2ccc(O)cc2)NC(=O)[C@H](Cc2ccccc2)NC(=O)[C@H](CC(N)=O)NC(=O)[C@H](CO)NC(=O)[C@@H](N)CCCNC(=N)N)C(=O)N[C@@H](C)C(=O)NCC(=O)N[C@@H](CC(C)C)C(=O)N[C@@H](C)C(=O)N[C@@H](Cc2c[nH]cn2)C(=O)N[C@@H](CC(=O)O)C(=O)N[C@@H](CCCCN)C(=O)N[C@@H](C)C(=O)N[C@H](C(N)=O)[C@@H](C)O)cc1` (H-RSNFYLGC(X1)AGLAHDKAT-NH2), the “% remaining peptide, base” value (1 mM peptide, 5 mM K2CO3, 2 d at rt, then 4 d at 37° C.) is reported as 83%, the remaining at 144 h, 1 mM [2] is reported as 90% and the remaining at 144 h, 1 mM [3] is reported as 83%. For the same compound, the “stability toward acids (in words)” value was “stable”, the “stability toward bases (in words)” value was “stable” and the “stability toward external thiol nucleophiles (in words)” value was “stable”.
